From the supplement of paper PMC5908809

Key:
[1] = test system: SNK-6 (IL-2 2.5 ng/mL); assay: percent inhibition of viability; higher = more inhibition; settings: 72 h
[2] = test system: KAI3 (IL-2 2.5 ng/mL); assay: as above; settings: 72 h
[3] = test system: normal primary NK cells, pool 2 (3 donors) (IL-2 2.5 ng/mL); assay: as above; settings: 72 h
[4] = test system: normal primary NK cells, pool 1 (3 donors) (IL-2 2.5 ng/mL); assay: as above; settings: 72 h
[5] = test system: KHYG-1 (IL-2 2.5 ng/mL); assay: as above; settings: 72 h
[6] = test system: NK-YS (IL-2 2.5 ng/mL); assay: as above; settings: 72 h
[7] = test system: normal primary NK cells, pool 1 (3 donors), resting (IL-2 0 ng/mL); assay: as above; settings: 72 h
[8] = test system: YT (IL-2 2.5 ng/mL); assay: as above; settings: 72 h
[9] = test system: IMC-1 (IL-2 20 ng/mL); assay: as above; settings: 72 h
[10] = test system: DERL-7 (IL-2 2.5 ng/mL); assay: as above; settings: 72 h
[11] = test system: normal primary NK cells, pool 3 (3 donors) (IL-2 2.5 ng/mL); assay: as above; settings: 72 h
[12] = test system: NK-92 (IL-2 2.5 ng/mL); assay: as above; settings: 72 h
[13] = test system: NKL (IL-2 2.5 ng/mL); assay: as above; settings: 72 h
[14] = test system: SNK-6 (IL-2 2.5 ng/mL); assay: drug sensitivity score (DSS) (DSS units); higher = more sensitive; extreme values may be limits of the assay; settings: 72 h
[15] = test system: KAI3 (IL-2 2.5 ng/mL); assay: as above; settings: 72 h
[16] = test system: normal primary NK cells, pool 2 (3 donors) (IL-2 2.5 ng/mL); assay: as above; settings: 72 h
[17] = test system: normal primary NK cells, pool 1 (3 donors) (IL-2 2.5 ng/mL); assay: as above; settings: 72 h
[18] = test system: KHYG-1 (IL-2 2.5 ng/mL); assay: as above; settings: 72 h
[19] = test system: NK-YS (IL-2 2.5 ng/mL); assay: as above; settings: 72 h
[20] = test system: normal primary NK cells, pool 1 (3 donors), resting (IL-2 0 ng/mL); assay: as above; settings: 72 h
[21] = test system: YT (IL-2 2.5 ng/mL); assay: as above; settings: 72 h
[22] = test system: IMC-1 (IL-2 20 ng/mL); assay: as above; settings: 72 h
[23] = test system: DERL-7 (IL-2 2.5 ng/mL); assay: as above; settings: 72 h
[24] = test system: normal primary NK cells, pool 3 (3 donors) (IL-2 2.5 ng/mL); assay: as above; settings: 72 h
[25] = test system: NK-92 (IL-2 2.5 ng/mL); assay: as above; settings: 72 h
[26] = test system: NKL (IL-2 2.5 ng/mL); assay: as above; settings: 72 h
[27] = test system: normal NK cells expanded with K562-aAPC; assay: percent inhibition of viability; higher = more inhibition; settings: 72 h, IL-2 2.5 ng/mL
Procedure: (§1)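 Drug sensitivity and resistance testing on K562-aAPC-expanded normal NK cells: 5 concentrations (10-fold steps over a 10,000-fold range), 72 h at 37 °C, viability by CellTiter-Glo normalised to DMSO and benzethonium chloride controls; DSS from the fitted curve.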

[28] = test system: normal NK cells expanded with K562-aAPC; assay: drug sensitivity score (DSS) (DSS units); higher = more sensitive; extreme values may be limits of the assay; settings: 72 h; IL-2 2.5 ng/mL
Procedure: as §1

Cn1cc(-c2cnn3c(N)c(Br)c([C@@H]4CCCNC4)nc23)cn1 [MK-8776] (max concentration tested 2500 nM)
percent inhibition of viability [%]
Settings	0.25 nM	2.5 nM	25 nM	250 nM	2500 nM
[1]	9.37	1.96	-6.2	5.96	39.8
[2]	3.31	2.43	4.64	27.4	78.2
[3]	-8.05	-5.57	-3.65	-0.92	21.5
[4]	-5.76	-3.11	7.06	4.82	30.9
[5]	-1.01	-4.38	-0.53	35.5	96.9
[6]	-4.27	-8.69	-3.31	4.44	71.2
[7]	-9.91	-16.5	4.6	0.8	20
[8]	0.02	-2.99	0.3	1.22	7.84
[9]	0.83	-1.94	-0.11	-7.96	-12.2
[10]	-4.26	-3.5	3.67	6.88	55.8
[11]	-9.21	-3.85	-3.76	-1.26	7.54
[12]	-2.81	3.64	-4.5	1.39	59.4
[13]	-4.57	-4.36	-8.73	22.1	81.6
[27]	-4.61	0.4	-2.28	10.6	52.3

Settings	drug sensitivity score
[14]	2.97
[15]	7.81
[16]	0.64
[17]	2.16
[18]	10.2
[19]	4.58
[20]	0.68
[21]	0
[22]	0
[23]	4.16
[24]	0
[25]	3.39
[26]	7.86
[28]	4.51

Cc1ccc(NC(=O)c2ccc(CN3CCN(C)CC3)cc2)cc1Nc1nc(-c2cccnc2)cs1 [Masitinib] (max concentration tested 10000 nM)
percent inhibition of viability [%]
Settings	1 nM	10 nM	100 nM	1000 nM	10000 nM
[1]	11	9.07	-33.7	-49.3	86.9
[2]	0.17	0.29	-11.5	2.65	96.5
[3]	-10.8	-9.27	-8.85	-5.72	90.7
[4]	-9.84	-12.7	-4.81	-1.08	98.6
[5]	-4.84	3.44	-1.97	5.87	97.8
[6]	-1.57	-2.35	1.86	14.4	98.2
[7]	-13.3	-12	9.4	-3	95.5
[8]	0.22	-0.59	-2.17	8.04	97.5
[9]	-6.41	-3.52	-8.01	-3.09	100
[10]	-4.46	4.7	-3.25	14.7	99.9
[11]	-9.21	-14.7	-12.2	-0.94	86.2
[12]	-1.64	6.19	1.77	-11.2	96.5
[13]	-13.2	-15.1	-14.2	-3.8	96.7
[27]	-1.56	-0.88	-2.2	6.06	99.6

Settings	drug sensitivity score
[14]	3.3
[15]	5.72
[16]	4.61
[17]	5.41
[18]	6.29
[19]	7.84
[20]	5.07
[21]	6.67
[22]	5.34
[23]	7.97
[24]	4.72
[25]	4.64
[26]	5.08
[28]	6.42
